Structures are written as SMILES.

Type in all cases: cell-based
The target of one data set is T1, LXRa (NR1H3) (Homo sapiens, UniProt Q13133).
T1 construct: expressed in transfected cells; host or cells: HepG2
T1 sequence (Q13133 1-447): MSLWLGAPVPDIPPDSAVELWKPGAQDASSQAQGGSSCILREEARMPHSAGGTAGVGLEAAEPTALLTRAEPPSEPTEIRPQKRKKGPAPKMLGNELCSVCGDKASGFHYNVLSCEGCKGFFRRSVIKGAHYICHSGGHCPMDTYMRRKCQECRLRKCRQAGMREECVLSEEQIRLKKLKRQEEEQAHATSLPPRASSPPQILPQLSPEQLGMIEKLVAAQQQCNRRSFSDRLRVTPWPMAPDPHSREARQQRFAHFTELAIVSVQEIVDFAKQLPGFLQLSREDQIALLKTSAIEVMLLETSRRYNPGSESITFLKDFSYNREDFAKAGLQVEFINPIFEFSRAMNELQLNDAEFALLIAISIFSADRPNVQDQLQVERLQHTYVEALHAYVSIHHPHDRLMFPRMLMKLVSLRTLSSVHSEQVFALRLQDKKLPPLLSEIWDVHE
The data set is described as follows: ATG_LXRa_TRANS: Factorial reporter gene assay (HepG2). As to conditions: HepG2; scale not given, looks like -log10 of molar active concentration; 0 = no activity. A digest of the protocol:
(§1)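 HepG2 cells transfected with multiplexed reporter libraries: cis-acting binding-site reporters (CIS) and a one-hybrid nuclear-receptor trans system (TRANS). Chemicals tested at seven concentrations, starting at the maximum tolerated concentration with three-fold serial dilutions.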

The next data set deals with T2, ERa (ESR1) (Homo sapiens, UniProt P03372).
T2 construct: expressed in transfected cells; host or cells: HEK293
In words: NCGC_ERalpha_Agonist: GAL4 BLAM Reporter gene assay: ERa. As to conditions: agonist mode; scale not given, looks like -log10 of molar active concentration; 0 = no activity. Here is the method:
These assays measure binding constants and enzyme inhibition values for nuclear receptors. The targets include [drawing 67] , [drawing 68] , [drawing 69] , [drawing 70] , [drawing 71] , [drawing 72] , [drawing 73] , [drawing 74] , [drawing 75] and [drawing 76] . Each of the nuclear receptor targets was measured in agonist mode. Assays were run at the NIH Chemical Genomics Center (Rockville, MD).
Cell-based HTS Assays: These assays measuring binding constants and enzyme inhibition values for nuclear receptors. The targets include AR, ER, FXR, LXR, PPARα, PPARδ, PPARγ, RXRα, RXRβ and PXR. Each of the nuclear receptor targets was measured in both agonist and antagonist mode, but the antagonist data is still undergoing analysis due to possible interference between cytotoxicity and assay activity, so antagonist mode data were not used in the present analysis. Assays were run at the NIH Chemical Genomics Center (Rockville, MD) as part of the Tox21 collaboration. […] The R^2 was required to be ≥0.5. Values where only the highest concentration exceeded 50% activity were excluded to eliminate weak or false positives. Detailed description of the methods, data and analysis methods for this dataset will be presented in a separate publication.
A general note: In a reporter assay the amount or activity of a reporter protein is the signal.

Another data set has as its target T3, PXR (NR1I2) (Homo sapiens, UniProt O75469).
T3 sequence (O75469 1-434): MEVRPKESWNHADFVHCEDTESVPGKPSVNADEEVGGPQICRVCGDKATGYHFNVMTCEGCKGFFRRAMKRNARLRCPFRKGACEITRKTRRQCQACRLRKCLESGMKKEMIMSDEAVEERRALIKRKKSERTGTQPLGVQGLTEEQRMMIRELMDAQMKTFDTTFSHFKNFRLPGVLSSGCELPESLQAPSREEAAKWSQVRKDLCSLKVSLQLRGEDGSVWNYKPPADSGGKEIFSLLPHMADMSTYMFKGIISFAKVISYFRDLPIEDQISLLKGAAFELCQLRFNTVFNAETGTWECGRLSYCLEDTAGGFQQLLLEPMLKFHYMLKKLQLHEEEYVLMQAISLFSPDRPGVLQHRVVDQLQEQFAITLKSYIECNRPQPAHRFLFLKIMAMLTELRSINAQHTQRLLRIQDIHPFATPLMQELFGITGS
The data set is described as follows: ATG_PXR_TRANS: Factorial reporter gene assay (HepG2). As to conditions: HepG2; scale not given, looks like -log10 of molar active concentration; 0 = no activity. Also noted: endogenous in cells; host or cells: HepG2. The essentials:
as §1

Data set [1] has as its target T4, RXRB (retinoid X receptor, beta) (Homo sapiens, UniProt P28702).
T4 construct: expressed in transfected cells; host or cells: HepG2
T4 sequence (P28702 1-533): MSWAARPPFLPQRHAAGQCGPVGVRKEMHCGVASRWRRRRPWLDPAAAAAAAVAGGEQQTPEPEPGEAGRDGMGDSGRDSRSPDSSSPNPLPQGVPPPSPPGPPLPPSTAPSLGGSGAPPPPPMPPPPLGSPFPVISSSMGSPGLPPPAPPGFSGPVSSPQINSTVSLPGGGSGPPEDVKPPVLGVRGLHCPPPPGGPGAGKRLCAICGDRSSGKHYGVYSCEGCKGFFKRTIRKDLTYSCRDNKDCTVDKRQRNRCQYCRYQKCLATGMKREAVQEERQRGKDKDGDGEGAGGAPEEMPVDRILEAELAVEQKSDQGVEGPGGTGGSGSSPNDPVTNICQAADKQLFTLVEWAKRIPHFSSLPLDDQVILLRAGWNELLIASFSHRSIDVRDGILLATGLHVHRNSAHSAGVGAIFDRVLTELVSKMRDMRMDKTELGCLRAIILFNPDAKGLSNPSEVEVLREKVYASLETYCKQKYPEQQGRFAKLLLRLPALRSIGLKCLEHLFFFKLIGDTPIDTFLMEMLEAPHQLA
The data set is described as follows: ATG_RXRb_TRANS: Factorial reporter gene assay (HepG2). As to conditions: HepG2; scale not given, looks like -log10 of molar active concentration; 0 = no activity. The procedure:
A multiple reporter transcription unit (MRTU) library consisting of 48 transcription factor binding sites was transfected into the HepG2 human liver hepatoma cell line. In addition to the cis-acting reporter genes (CIS), a modification of the approach was used to generate a trans-system (TRANS) with a mammalian one-hybrid assay consisting of an additional 25 MRTU library reporting the activity of nuclear receptor super-family members. […] These assays were performed by Attagene Inc. (Morrisville NC) under contract to EPA.
In addition to the cis-acting reporter genes (CIS), a modification of the approach was used to generate a trans-system (TRANS) with a mammalian one-hybrid assay consisting of an additional 25 MRTU library reporting the activity of nuclear receptor super-family members. […] Chemicals were then tested in the CIS and TRANS assays at seven concentrations starting at the MTC and followed by three-fold serial dilutions. These assays were performed by Attagene Inc. (Morrisville NC) under contract to EPA. Detailed description of the methods, data and analysis methods for this dataset will be presented in a separate publication.

T2 sequence (P03372 whole entry): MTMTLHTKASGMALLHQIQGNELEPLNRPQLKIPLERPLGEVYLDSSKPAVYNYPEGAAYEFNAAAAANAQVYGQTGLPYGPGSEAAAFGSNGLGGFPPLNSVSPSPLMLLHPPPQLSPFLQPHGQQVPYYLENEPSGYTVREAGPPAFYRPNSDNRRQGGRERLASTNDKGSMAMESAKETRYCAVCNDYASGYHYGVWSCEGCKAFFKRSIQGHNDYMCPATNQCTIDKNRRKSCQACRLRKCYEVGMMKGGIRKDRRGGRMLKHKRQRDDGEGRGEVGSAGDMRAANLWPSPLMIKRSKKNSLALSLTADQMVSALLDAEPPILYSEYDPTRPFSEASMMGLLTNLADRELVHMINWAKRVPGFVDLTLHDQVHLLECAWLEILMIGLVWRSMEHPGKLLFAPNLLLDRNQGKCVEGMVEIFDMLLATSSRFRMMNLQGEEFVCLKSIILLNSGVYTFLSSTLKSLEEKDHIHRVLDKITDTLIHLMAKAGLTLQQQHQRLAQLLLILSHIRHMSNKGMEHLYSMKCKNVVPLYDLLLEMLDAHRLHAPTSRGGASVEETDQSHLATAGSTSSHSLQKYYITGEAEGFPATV

As for `C=CCOC(=O)C(C)(C)OC(=O)c1cc(-n2c(=O)cc(C(F)(F)F)n(C)c2=O)ccc1Cl` [r47], the ATG_LXRa_TRANS on LXRa (NR1H3) was 0. On ERa (ESR1), this compound yielded an NCGC_ERalpha_Agonist of 0. This compound also showed an ATG_PXR_TRANS on PXR (NR1I2) of 0. In data set [1], this compound showed an ATG_RXRb_TRANS of 0.

As to `CCC(C)Nc1c([N+](=O)[O-])cc(C(C)(C)C)cc1[N+](=O)[O-]` (stereo not shown) [r48], on LXRa (NR1H3), the ATG_LXRa_TRANS is 0. The same compound had an NCGC_ERalpha_Agonist on ERa (ESR1) of 0. Further, the ATG_PXR_TRANS at PXR (NR1I2) was 5.114. In data set [1], this compound came in with an ATG_RXRb_TRANS of 0.

Regarding `CCSC(=O)N(CC(C)C)CC(C)C` [r49], at LXRa (NR1H3), the ATG_LXRa_TRANS amounted to 0. The compound further had an NCGC_ERalpha_Agonist on ERa (ESR1) of 0. This compound also yielded an ATG_PXR_TRANS at PXR (NR1I2) of 0. In addition, the ATG_RXRb_TRANS in data set [1] worked out at 0.

As to `O=C1C2CC=CCC2C(=O)N1SC(Cl)(Cl)Cl` (stereo not shown) [r51], at LXRa (NR1H3), the ATG_LXRa_TRANS was found to be 0. For the same compound, on ERa (ESR1), the NCGC_ERalpha_Agonist stood at 0. The same compound yielded an ATG_PXR_TRANS at PXR (NR1I2) of 0. The ATG_RXRb_TRANS in data set [1] is on record as 0.

In the case of `CNC(=O)Oc1cccc2ccccc12` [r52], the ATG_LXRa_TRANS on LXRa (NR1H3) is 0. For the same compound, the NCGC_ERalpha_Agonist on ERa (ESR1) was determined as 4.543. On PXR (NR1I2), this compound showed an ATG_PXR_TRANS of 0. Further, the ATG_RXRb_TRANS in data set [1] is 0.

Consider `CC1=C(C(=O)Nc2ccccc2)SCCO1` [r53], for which the ATG_LXRa_TRANS at LXRa (NR1H3) is reported as 0. This compound also had an NCGC_ERalpha_Agonist on ERa (ESR1) of 0. The same compound displayed an ATG_PXR_TRANS at PXR (NR1I2) of 0. The ATG_RXRb_TRANS in data set [1] was determined as 0.

`CCOC(=O)C(Cl)Cc1cc(-n2nc(C)n(C(F)F)c2=O)c(F)cc1Cl` (stereo not shown) [r54] yielded an ATG_LXRa_TRANS at LXRa (NR1H3) of 0. Also, the NCGC_ERalpha_Agonist on ERa (ESR1) stood at 0. The ATG_PXR_TRANS on PXR (NR1I2) was 4.367. For the same compound, the ATG_RXRb_TRANS in data set [1] is 0.

On to `Nc1cnn(-c2ccccc2)c(=O)c1Cl` [r56], for which the ATG_LXRa_TRANS at LXRa (NR1H3) is given as 0. Also, the NCGC_ERalpha_Agonist on ERa (ESR1) is 0. Also, on PXR (NR1I2), the ATG_PXR_TRANS came out at 0. For the same compound, in data set [1], the ATG_RXRb_TRANS is 0.

At LXRa (NR1H3), `COc1cc(Cl)c(OC)cc1Cl` [r57] came in with an ATG_LXRa_TRANS of 0. This compound also had an NCGC_ERalpha_Agonist on ERa (ESR1) of 0. Further, the ATG_PXR_TRANS at PXR (NR1I2) is recorded as 0. The ATG_RXRb_TRANS in data set [1] is 0.

The compound `N#Cc1c(Cl)c(Cl)c(Cl)c(C#N)c1Cl` [r58] showed an ATG_LXRa_TRANS at LXRa (NR1H3) of 0. In addition, the NCGC_ERalpha_Agonist on ERa (ESR1) was 0. This compound registered an ATG_PXR_TRANS at PXR (NR1I2) of 6.658. In data set [1], this compound registered an ATG_RXRb_TRANS of 0.

In turn, `CC(C)OC(=O)Nc1cccc(Cl)c1` [r59] yielded an ATG_LXRa_TRANS at LXRa (NR1H3) of 0. Moreover, on ERa (ESR1), the NCGC_ERalpha_Agonist is on record as 0. The compound further gave an ATG_PXR_TRANS at PXR (NR1I2) of 4.347. Further, the ATG_RXRb_TRANS in data set [1] is given as 0.

On LXRa (NR1H3), `COc1nc(C)nc(NC(=O)NS(=O)(=O)c2ccccc2Cl)n1` [r62] displayed an ATG_LXRa_TRANS of 0. Moreover, the NCGC_ERalpha_Agonist at ERa (ESR1) is listed as 0. At PXR (NR1I2), this compound gave an ATG_PXR_TRANS of 0. This compound registered an ATG_RXRb_TRANS in data set [1] of 0.

On to `COc1nc(C)nc(NC(=O)NS(=O)(=O)c2ccccc2Cl)n1` [r63], for which the ATG_LXRa_TRANS at LXRa (NR1H3) was determined as 0. The compound also registered an NCGC_ERalpha_Agonist at ERa (ESR1) of 0. Besides, the ATG_PXR_TRANS at PXR (NR1I2) turned out to be 0. In data set [1], this compound returned an ATG_RXRb_TRANS of 0.

The values are drawn from PMC3038857, “Using Nuclear Receptor Activity to Stratify Hepatocarcinogens” (PLoS ONE, 2011).
